Test results from patent US8314144B2, “Compounds having antitumor activity” (Defiante Farmaceutica, S.A., priority 2004, dated 2012).

Assays:
[1] = tested on: AH-130 Yoshida ascites hepatoma; assay: In vivo antineoplastic activity in rats bearing Yoshida tumor; set-up: species or system rat; conditions: 25 mg/Kg i.p., alternate days, 4 treatments, 15 animals
Method: Male Wistar rats (Morini s.r.l.) of 190-200 g weight were maintained at 22±2° C., with a light/dark cycle of 12 hours, and were given free access to water and food (standard diet). Some rats were intraperitoneally inoculated with 10×10^7 cells from AH-130 Yoshida ascites hepatoma (Llovera et al., Int. J. Cancer 61:138-41 (1995); kind gift from Prof. J M Argilès). 5-7 days after the inoculum, the rats developed an ascites that could be detected by macroscopic analysis of the abdomen.
(§1) The experimental protocol provided that 7 days after ascites induction 15 animals (treated group) received 2 ml of a buffered saline containing ST (25 mg/Kg i.p.), whereas other 15 animals (control group) received the buffered saline alone. The same treatment was conducted at alternate days for one week up to a total of 4 treatments for each animal. The dosage was selected on the basis of preliminary studies in which a 6.1 μM plasma concentration of ST was achieved 5 hr after intraperitoneal administration. The animals were subsequently kept under observation for 3 weeks (follow-up), examining the ascites effusion, the presence of subcutaneous neoplastic mass in the inoculum site, and the mortality.

normal PBMCs = assay: Viability test with lymphocytes (PBMCs) taken from healthy individuals; assay type: cell-based; conditions: 72 hours
Method: In addition, in order to exclude the induction of toxicity in normal PBMCs by the test molecule, viability tests were also carried out with lymphocytes taken from healthy individuals and contacted with the test compound.

[2] = tested on: acute leukaemia T cells (Jurkat); assay: Cell mortality of Jurkat cells by propidium iodide flow cytofluorimetry; assay type: cell-based
Method: The cells were seeded in […] flasks. After plating the cells were grown for 24 hours prior to their treatment.
The experiment was carried out by adding increasing amounts of the test molecule to hemiconfluent Jurkat cells; the proapoptotic effect was determined at different times from culture preparation.
The experimental design provided for the addition of the test compound only at the start of cell culturing, and the determination of the effects at the established times. The data on cell mortality were obtained using propidium iodide flow cytofluorimetry techniques only. The fact that those cells live suspended in culture rendered these assays extremely easy to perform.
For this reason the cell mortality was determined just after 2 hour treatment and at 24, 48 and 72 hrs.
The mortality was calculated as the percentage over 10.000 acquired standard events. Since the results are almost exactly overlapping, with very low deviation in all the readings for each single experiment, the mean values of 5 cytofluorimetric readings are reported in the following Table without standard deviation.

[3] = Plasma concentration after intraperitoneal administration (preliminary studies); assay type: in vivo, rat; conditions: 5 hr after intraperitoneal administration
Method: as §1

[4] = tested on: human hepatocarcinoma cells (HepG2); assay: Cell mortality of HepG2 cells by propidium iodide flow cytofluorimetry; assay type: cell-based
Method: (§2) The cells were seeded in 60 mm-diameter Petri dishes. After plating the cells were grown for 24 hours prior to their treatment.
(§3) In this experiment, increasing amounts of the test molecule were added to hemiconfluent HepG2 cells (Kogure et al., Cancer Chemother. Pharmacol., 2003; DOI. 10.1007/s); the antiproliferative and proapoptotic effects were determined at different times from cell seeding.
(§4) The experimental design in some cases provided for the addition of the test compound once the cell culture had been prepared, in other cases the cultures were exposed to the compound every 24 hours after suitably removing the conditioned medium and washing the cells with new (complete) medium. The cells were counted in a Bürker chamber after suitable dilution with a vital dye to visualize the living cells. In particular, the trypan blue exclusion method was used for cell count at 0, 24 and 48 hour treatment. At least 10 cell counts were performed for each experiment and each treatment was carried out in quadruple.
(§5) A further analysis involved cytofluorimetry utilizing propidium iodide as a marker for […] cells. The test compound was assayed vs. the CTP inhibitor etomoxir to verify whether the tumoricidal effect could be attributed to CPT-1 inhibition or involved novel mechanisms.
In addition, assays on cell viability were carried out using flow cytofluorimetry techniques.
In further experiments the test molecule was added every 24 hours, as above described, after suitably removing the surnatants and washing the cultures with complete medium. […] In the control, the surnatant was eliminated and complete medium alone was added to the cultures.

[5] = tested on: human hepatocarcinoma cells (HepG2); assay: HepG2 cell count (trypan blue exclusion), antiproliferative and tumoricidal effect; assay type: cell-based
Method: as §2, §3, §4, §5
The data relating to cell viability are expressed as percentage on the number of viable cells from control cultures (=100%). (E=etomoxir; ST1326=tested compound). […] At the same concentrations etomoxir was ineffective.

CCCCCCCCCCCCCCNC(=O)N[C@H](CC(=O)[O-])C[N+](C)(C)C [ST1326, R-4-trimethylammonium-3-(tetradecylcarbamoyl)-Aminobutyrate]
Presence of cachexy (No. of animals) [1]: 1 | Presence of tumor cells in the abdominal cavity (post-mortem examination) (No. of animals) [1]: 0 | Presence of tumor mass in the inoculum site (No. of animals) [1]: 0 | Survival at 1 week follow-up (No. of survived animals) [1]: 15 | Survival at 2 week follow-up (No. of survived animals) [1]: 15 | Survival at 3 week follow-up (No. of survived animals) [1]: 15 | viability test (cell mortality) in PBMCs (normal PBMCs; 1.0 μM): 9% | viability test (cell mortality) in PBMCs (normal PBMCs; 5.0 μM): 10% | viability test (cell mortality) in PBMCs (normal PBMCs; 10 μM): 10% | viability test (cell mortality) in PBMCs (normal PBMCs; 20 μM): 12% | cell mortality ([2]; 0.1 μM, 2 hours): 3% | cell mortality ([2]; 0.1 μM, 24 hours): 4% | cell mortality ([2]; 0.1 μM, 48 hours): 5% | cell mortality ([2]; 0.1 μM, 72 hours): 13% | cell mortality ([2]; 0.25 μM, 2 hours): 3% | cell mortality ([2]; 0.25 μM, 24 hours): 5% | cell mortality ([2]; 0.25 μM, 48 hours): 8% | cell mortality ([2]; 0.25 μM, 72 hours): 14% | cell mortality ([2]; 0.50 μM, 2 hours): 7% | cell mortality ([2]; 0.50 μM, 24 hours): 15% | cell mortality ([2]; 0.50 μM, 48 hours): 35% | cell mortality ([2]; 0.50 μM, 72 hours): 56% | cell mortality ([2]; 1.0 μM, 2 hours): 6% | cell mortality ([2]; 1.0 μM, 24 hours): 79% | cell mortality ([2]; 1.0 μM, 48 hours): 83% | cell mortality ([2]; 1.0 μM, 72 hours): 90% | cell mortality ([2]; 2.5 μM, 2 hours): 6% | cell mortality ([2]; 2.5 μM, 24 hours): 91% | cell mortality ([2]; 2.5 μM, 48 hours): 97% | cell mortality ([2]; 2.5 μM, 72 hours): 99% | cell mortality ([2]; 5.0 μM, 2 hours): 8% | cell mortality ([2]; 5.0 μM, 24 hours): 99% | cell mortality ([2]; 5.0 μM, 48 hours): 99% | cell mortality ([2]; 5.0 μM, 72 hours): 99% | cell mortality ([2]; 10 μM, 2 hours): 20% | cell mortality ([2]; 10 μM, 24 hours): 99% | cell mortality ([2]; 10 μM, 48 hours): 99% | cell mortality ([2]; 10 μM, 72 hours): 99% | plasma concentration [3]: 6.1 µM | cell mortality ([4]; HepG2, 0.1 μM added every 24 hours, 48 hours (second addition)): 45 ± 2.0% | cell mortality ([4]; HepG2, 0.1 μM added every 24 hours, 72 hours (third addition)): 56.5 ± 1.2% | cell mortality ([4]; HepG2, 0.1 μM, prior experiments, partial tumoricidal effect): ~50% | cell mortality ([4]; HepG2, 0.1 μM, treated only once (time 0), 24 hours): 15.3 ± 2.1% | cell mortality ([4]; HepG2, 0.1 μM, treated only once (time 0), 48 hours): 27.3 ± 2.2% | cell mortality ([4]; HepG2, 0.1 μM, treated only once (time 0), 72 hours): 49.9 ± 1.2% | cell mortality ([4]; HepG2, 5 μM added every 24 hours, 48 hours (second addition)): 64.7 ± 1.7% | cell mortality ([4]; HepG2, 5 μM added every 24 hours, 72 hours (third addition)): 89.7 ± 1.4% | cell mortality ([4]; HepG2, 5 μM, treated only once (time 0), 24 hours): 25.78 ± 1.70% | cell mortality ([4]; HepG2, 5 μM, treated only once (time 0), 48 hours): 56.29 ± 1.51% | cell mortality ([4]; HepG2, 5 μM, treated only once (time 0), 72 hours): 93.48 ± 1.5% | cell mortality ([4]; HepG2, 10 μM added every 24 hours, 48 hours (second addition)): 87.5 ± 2.03% | cell mortality ([4]; HepG2, 10 μM added every 24 hours, 72 hours (third addition)): 91.3 ± 1.9% | cell mortality ([4]; HepG2, 10 μM, treated only once (time 0), 24 hours): 53.21 ± 1.5% | cell mortality ([4]; HepG2, 10 μM, treated only once (time 0), 48 hours): 85.10 ± 0.9% | cell mortality ([4]; HepG2, 10 μM, treated only once (time 0), 72 hours): 96.3 ± 1.1% | cell mortality ([4]; HepG2, 20 μM added every 24 hours, 48 hours (second addition)): 93.9 ± 1.03% | cell mortality ([4]; HepG2, 20 μM added every 24 hours, 72 hours (third addition)): 98.1 ± 0.9% | cell mortality ([4]; HepG2, 20 μM, treated only once (time 0), 24 hours): 88.22 ± 1.9% | cell mortality ([4]; HepG2, 20 μM, treated only once (time 0), 48 hours): 89.10 ± 0.17% | cell mortality ([4]; HepG2, 20 μM, treated only once (time 0), 72 hours): 98.51 ± 1.3% | number of viable cells versus control cultures (FIGURE) ([5]; HepG2, less than 10 μM, after 24 hours): remarkable reduction in the number of cells | antiproliferative and tumoricidal activity in vitro ([5]; tumor cell lines, same experimental conditions for etomoxir and compounds (I)): in vitro antiproliferative effect associated with a significant tumoricidal activity
